Assay results reported in publication doi:10.1101/2024.08.19.608619, “Discovery of potent SARS-CoV-2 nsp3 macrodomain inhibitors uncovers lack of translation to cellular antiviral response” (bioRxiv, 2024).
Read-outs that look alike come from different tables or passages of the source.

Tests used:
[1] = molecular target: T1, SARS-CoV-2 nsp3-mac1 (Severe acute respiratory syndrome coronavirus 2, UniProt P0DTD1); assay: biochemical; assay type: biochemical; conditions: SARS-CoV-2 nsp3 macrodomain TR-FRET single point, concentration 50.0 uM
[2] = molecular target: T1, SARS-CoV-2 nsp3-mac1; assay: biochemical; set-up: SARS-CoV-2 nsp3 macrodomain TR-FRET single point, per cent inhibition, n=2

SMILES: c1ccc([C@@H](CNc2ncnc3n[nH]cc23)N2CCOCC2)cc1 [ASAP-0000001]
- perc_inhibition_mean [1]: -0.781%
- inhibition at 50 µM ([2]; read-out: perc_inhibition_mean, batch_name=ASAP-0000001-001): -0.781%

SMILES: COc1cccc(Cl)c1CNc1ncnc2[nH]ncc12 [ASAP-0000002]
- perc_inhibition_mean [1]: -1.826%
- inhibition at 50 µM ([2]; read-out: perc_inhibition_mean, batch_name=ASAP-0000002-001): -1.83%

SMILES: c1ccc2sc(CCNc3ncnc4nc[nH]c34)nc2c1 [ASAP-0000003]
- perc_inhibition_mean [1]: -4.211%
- inhibition at 50 µM ([2]; read-out: perc_inhibition_mean, batch_name=ASAP-0000003-001): -4.21%

SMILES: CC(C)(CCNc1ncnc2[nH]ccc12)S(C)(=O)=O [ASAP-0000004]
- perc_inhibition_mean [1]: 0.75%
- inhibition at 50 µM ([2]; read-out: perc_inhibition_mean, batch_name=ASAP-0000004-001): 0.75%

SMILES: C=CCn1c(Sc2ncnc3[nH]ccc23)nc2sccc2c1=O [ASAP-0000005]
- perc_inhibition_mean [1]: 6.305%
- inhibition at 50 µM ([2]; read-out: perc_inhibition_mean, batch_name=ASAP-0000005-001): 6.3%

SMILES: c1nc(N2CC[C@@H](n3cncn3)C2)c2cc[nH]c2n1 [ASAP-0000006]
- perc_inhibition_mean [1]: -1.543%
- inhibition at 50 µM ([2]; read-out: perc_inhibition_mean, batch_name=ASAP-0000006-001): -1.54%

SMILES: c1ccc(CN2CCO[C@@H](CNc3ncnc4nc[nH]c34)C2)cc1 [ASAP-0000007]
- perc_inhibition_mean [1]: -2.441%
- inhibition at 50 µM ([2]; read-out: perc_inhibition_mean, batch_name=ASAP-0000007-001): -2.44%

SMILES: CC(C)NC(=O)[C@@H]1CCCN(c2ncnc3[nH]ccc23)C1 [ASAP-0000008]
- perc_inhibition_mean [1]: 1.78%
- inhibition at 50 µM ([2]; read-out: perc_inhibition_mean, batch_name=ASAP-0000008-001): 1.78%

SMILES: c1ccc(OC[C@@H]2CCCN2c2ncnc3[nH]ccc23)cc1 [ASAP-0000009]
- perc_inhibition_mean [1]: -0.466%
- inhibition at 50 µM ([2]; read-out: perc_inhibition_mean, batch_name=ASAP-0000009-001): -0.466%

SMILES: O=C(Nc1cnc2[nH]ncc2c1)c1noc2c1CCCC2 [ASAP-0000010]
- perc_inhibition_mean [1]: -1.398%
- inhibition at 50 µM ([2]; read-out: perc_inhibition_mean, batch_name=ASAP-0000010-001): -1.4%

SMILES: O=S(=O)(Nc1cnc2[nH]ncc2c1)c1cnn(C2CCCC2)c1 [ASAP-0000011]
- perc_inhibition_mean [1]: 0.415%
- inhibition at 50 µM ([2]; read-out: perc_inhibition_mean, batch_name=ASAP-0000011-001): 0.415%

SMILES: O=C(Nc1cnc2[nH]ncc2c1)c1ccccc1CN1CCOCC1 [ASAP-0000012]
- perc_inhibition_mean [1]: -3.239%
- inhibition at 50 µM ([2]; read-out: perc_inhibition_mean, batch_name=ASAP-0000012-001): -3.24%

SMILES: Cc1cnc(CCNc2ncnc3[nH]ncc23)c(C)c1 [ASAP-0000013]
- perc_inhibition_mean [1]: 4.342%
- inhibition at 50 µM ([2]; read-out: perc_inhibition_mean, batch_name=ASAP-0000013-001): 4.34%

SMILES: Cc1cccc(OCCNc2ncnc3nc[nH]c23)c1 [ASAP-0000014]
- perc_inhibition_mean [1]: 3.91%
- inhibition at 50 µM ([2]; read-out: perc_inhibition_mean, batch_name=ASAP-0000014-001): 3.91%

SMILES: Fc1ccc(OC(F)F)c(CNc2cnc3[nH]ncc3c2)c1 [ASAP-0000015]
- perc_inhibition_mean [1]: -6.672%
- inhibition at 50 µM ([2]; read-out: perc_inhibition_mean, batch_name=ASAP-0000015-002): -6.67%

SMILES: O=C(Nc1cnc2[nH]ncc2c1)C1CCN(c2ccc3nncn3n2)CC1 [ASAP-0000016]
- perc_inhibition_mean [1]: 16.966%
- inhibition at 50 µM ([2]; read-out: perc_inhibition_mean, batch_name=ASAP-0000016-001): 17%

SMILES: NS(=O)(=O)N1CCCN(c2ncnc3[nH]c(I)cc23)CC1 [ASAP-0000017]
- perc_inhibition_mean [1]: 2.291%
- inhibition at 50 µM ([2]; read-out: perc_inhibition_mean, batch_name=ASAP-0000017-001): 2.29%

SMILES: Cc1ccc(S(=O)(=O)Nc2ccccc2F)cc1C(=O)Nc1cnc2[nH]ncc2c1 [ASAP-0000018]
- perc_inhibition_mean [1]: 0.764%
- inhibition at 50 µM ([2]; read-out: perc_inhibition_mean, batch_name=ASAP-0000018-001): 0.764%

SMILES: CNC(=O)c1cccc(CNC(=O)c2ncnc3[nH]ccc23)c1 [ASAP-0000019]
- perc_inhibition_mean [1]: -5.906%
- inhibition at 50 µM ([2]; read-out: perc_inhibition_mean, batch_name=ASAP-0000019-001): -5.91%

SMILES: Cc1[nH]c2ncnc(NC(=O)C3CCC(F)(F)CC3)c2c1C [ASAP-0000020]
- perc_inhibition_mean [1]: 2.148%
- inhibition at 50 µM ([2]; read-out: perc_inhibition_mean, batch_name=ASAP-0000020-001): 2.15%

SMILES: Fc1ccc(Oc2cc(CNc3ncnc4nc[nH]c34)ccn2)cc1 [ASAP-0000021]
- perc_inhibition_mean [1]: 2.011%
- inhibition at 50 µM ([2]; read-out: perc_inhibition_mean, batch_name=ASAP-0000021-001): 2.01%

SMILES: c1cc(CNc2cnc3[nH]ncc3c2)cc(-c2ccncc2)c1 [ASAP-0000022]
- perc_inhibition_mean [1]: -17.179%
- inhibition at 50 µM ([2]; read-out: perc_inhibition_mean, batch_name=ASAP-0000022-001): -17.2%

SMILES: O=C(Nc1cnc2[nH]ncc2c1)c1ccc(Oc2cccc(Br)c2)nc1 [ASAP-0000023]
- perc_inhibition_mean [1]: -0.183%
- inhibition at 50 µM ([2]; read-out: perc_inhibition_mean, batch_name=ASAP-0000023-001): -0.183%

SMILES: C#Cc1cccc(NC(=O)CN(C)c2ncnc3[nH]ccc23)c1 [ASAP-0000024]
- perc_inhibition_mean [1]: 4.398%
- inhibition at 50 µM ([2]; read-out: perc_inhibition_mean, batch_name=ASAP-0000024-001): 4.4%

SMILES: CN(CCOc1ccccc1)c1ncnc2[nH]ccc12 [ASAP-0000026]
- perc_inhibition_mean [1]: -2.258%
- inhibition at 50 µM ([2]; read-out: perc_inhibition_mean, batch_name=ASAP-0000026-001): -2.26%

SMILES: Cc1[nH]c2ncnc(NC(=O)c3ncn(-c4ccccc4)n3)c2c1C [ASAP-0000027]
- perc_inhibition_mean [1]: 7.104%
- inhibition at 50 µM ([2]; read-out: perc_inhibition_mean, batch_name=ASAP-0000027-001): 7.1%

SMILES: COc1cccc2cc(CNc3cnc4[nH]ncc4c3)oc12 [ASAP-0000028]
- perc_inhibition_mean [1]: -4.293%
- inhibition at 50 µM ([2]; read-out: perc_inhibition_mean, batch_name=ASAP-0000028-001): -4.29%

SMILES: COc1cc(CNc2cnc3[nH]ncc3c2)ccc1Cl [ASAP-0000029]
- perc_inhibition_mean [1]: -2.794%
- inhibition at 50 µM ([2]; read-out: perc_inhibition_mean, batch_name=ASAP-0000029-001): -2.79%

SMILES: FC(F)(F)c1ccccc1[C@@H]1CN(c2ncnc3[nH]ccc23)CCO1 [ASAP-0000030]
- perc_inhibition_mean [1]: -5.311%
- inhibition at 50 µM ([2]; read-out: perc_inhibition_mean, batch_name=ASAP-0000030-001): -5.31%

SMILES: O=C(Cc1ccc(F)cc1)Nc1ccc2[nH]ncc2c1 [ASAP-0000032]
- perc_inhibition_mean [1]: 1.139%
- inhibition at 50 µM ([2]; read-out: perc_inhibition_mean, batch_name=ASAP-0000032-001): 1.14%

SMILES: CC(C)(c1noc(-c2ncnc3[nH]ccc23)n1)S(C)(=O)=O [ASAP-0000033]
- perc_inhibition_mean [1]: -0.756%
- inhibition at 50 µM ([2]; read-out: perc_inhibition_mean, batch_name=ASAP-0000033-001): -0.756%

SMILES: O=C(CNc1ncnc2[nH]ccc12)N1CCc2ccccc21 [ASAP-0000034]
- perc_inhibition_mean [1]: 1.193%
- inhibition at 50 µM ([2]; read-out: perc_inhibition_mean, batch_name=ASAP-0000034-001): 1.19%

SMILES: CN1CCOc2cccc(NC(=O)Nc3cnc4[nH]ncc4c3)c21 [ASAP-0000035]
- perc_inhibition_mean [1]: -6.537%
- inhibition at 50 µM ([2]; read-out: perc_inhibition_mean, batch_name=ASAP-0000035-001): -6.54%

SMILES: c1ccc2sc(CNc3ncnc4[nH]ccc34)nc2c1 [ASAP-0000036]
- perc_inhibition_mean [1]: -0.671%
- inhibition at 50 µM ([2]; read-out: perc_inhibition_mean, batch_name=ASAP-0000036-001): -0.671%

SMILES: O=C1CN(c2ccc(Nc3ncnc4[nH]ccc34)cn2)CCN1 [ASAP-0000037]
- perc_inhibition_mean [1]: -16.793%
- inhibition at 50 µM ([2]; read-out: perc_inhibition_mean, batch_name=ASAP-0000037-001): -16.8%

SMILES: Cc1cccc2oc(CCNc3ncnc4[nH]ccc34)nc12 [ASAP-0000038]
- perc_inhibition_mean [1]: -3.259%
- inhibition at 50 µM ([2]; read-out: perc_inhibition_mean, batch_name=ASAP-0000038-001): -3.26%

SMILES: O=C(OCC(Br)=C1CCOCC1)c1ncnc2[nH]ccc12 [ASAP-0000039]
- perc_inhibition_mean [1]: -5.359%
- inhibition at 50 µM ([2]; read-out: perc_inhibition_mean, batch_name=ASAP-0000039-001): -5.36%

SMILES: CS(=O)(=O)N1CC[C@@H](COC(=O)c2ncnc3[nH]ccc23)C1 [ASAP-0000040]
- perc_inhibition_mean [1]: 0.187%
- inhibition at 50 µM ([2]; read-out: perc_inhibition_mean, batch_name=ASAP-0000040-001): 0.187%

SMILES: Cc1nc(C)c(CC(=O)Nc2cnc3[nH]ncc3c2)c(=O)[nH]1 [ASAP-0000041]
- perc_inhibition_mean [1]: 4.825%
- inhibition at 50 µM ([2]; read-out: perc_inhibition_mean, batch_name=ASAP-0000041-001): 4.83%

SMILES: O=C(Cc1n[nH]c2c1CCCC2)Nc1cnc2[nH]ncc2c1 [ASAP-0000042]
- perc_inhibition_mean [1]: -1.262%
- inhibition at 50 µM ([2]; read-out: perc_inhibition_mean, batch_name=ASAP-0000042-001): -1.26%

SMILES: Cc1noc([C@@H]2CCCN(c3ncnc4[nH]ccc34)C2)n1 [ASAP-0000043]
- perc_inhibition_mean [1]: 1.916%
- inhibition at 50 µM ([2]; read-out: perc_inhibition_mean, batch_name=ASAP-0000043-001): 1.92%

SMILES: NC(=O)c1ccccc1NC(=O)c1ncnc2[nH]ccc12 [ASAP-0000044]
- perc_inhibition_mean [1]: -2.586%
- inhibition at 50 µM ([2]; read-out: perc_inhibition_mean, batch_name=ASAP-0000044-001): -2.59%

SMILES: OC[C@@H]1CN(c2ncnc3nc[nH]c23)CCC1(F)F [ASAP-0000045]
- perc_inhibition_mean [1]: 1.75%
- inhibition at 50 µM ([2]; read-out: perc_inhibition_mean, batch_name=ASAP-0000045-001): 1.75%

SMILES: Cc1nc(Nc2cnn(CCO)c2)c2cc[nH]c2n1 [ASAP-0000046]
- perc_inhibition_mean [1]: -6.147%
- inhibition at 50 µM ([2]; read-out: perc_inhibition_mean, batch_name=ASAP-0000046-001): -6.15%

SMILES: OCc1cn([C@@H]2CCCN(c3ncnc4[nH]ccc34)C2)nn1 [ASAP-0000047]
- perc_inhibition_mean [1]: -0.682%
- inhibition at 50 µM ([2]; read-out: perc_inhibition_mean, batch_name=ASAP-0000047-001): -0.682%

SMILES: C=CCn1c(Cc2ccccc2)nnc1Sc1ncnc2[nH]ccc12 [ASAP-0000048]
- perc_inhibition_mean [1]: -7.711%
- inhibition at 50 µM ([2]; read-out: perc_inhibition_mean, batch_name=ASAP-0000048-001): -7.71%

SMILES: Fc1ccc(F)c(Sc2ncnc3[nH]ccc23)c1 [ASAP-0000049]
- perc_inhibition_mean [1]: -1.149%
- inhibition at 50 µM ([2]; read-out: perc_inhibition_mean, batch_name=ASAP-0000049-001): -1.15%

SMILES: Cc1ccnc(C2CCN(c3ncnc4[nH]ccc34)CC2)n1 [ASAP-0000050]
- perc_inhibition_mean [1]: 3.465%
- inhibition at 50 µM ([2]; read-out: perc_inhibition_mean, batch_name=ASAP-0000050-001): 3.46%

SMILES: O=S1(=O)CCC[C@@H](CNc2ncnc3n[nH]cc23)C1 [ASAP-0000051]
- perc_inhibition_mean [1]: 4.593%
- inhibition at 50 µM ([2]; read-out: perc_inhibition_mean, batch_name=ASAP-0000051-001): 4.59%

SMILES: Cc1cccc(C)c1-n1nnnc1CSc1ncnc2[nH]cnc12 [ASAP-0000052]
- perc_inhibition_mean [1]: 6.631%
- inhibition at 50 µM ([2]; read-out: perc_inhibition_mean, batch_name=ASAP-0000052-001): 6.63%
